In experiment [1] the target is T1, Mfd (Salmonella typhimurium, UniProt Q8ZQ01). Put plainly: Translocase assay (in vivo luminescence reporter system). Format: cell-based, S. typhimurium. The text has this:
FIGS. 1A-1C depict an in vivo high throughput screen identifing lead compound ARM-1. FIG. 1A is a schematic of in vivo screen design. In the upper panel, when Mfd is present, RNAP complexes stalled at the lacI-bound operator sequence are quickly removed, resulting in little to no transcription of the lux operon and low luminescence output. In the lower panel, when Mfd is either absent or inhibited, RNAP complexes stalled at the operator are not removed and are able to proceed during temporary dissociation of LacI, resulting in relatively high levels of luminescent output. FIG. 1B depicts the structure of the compound, ARM-1. […] Relative luminescence is normalized to no compound, solvent control, and 0.5% DMSO. *p<0.05 ***p<0.001.
In order to determine if Mfd's activity and/or RNAP termination function could be inactivated through the use of a small molecule, a high-throughput in vivo screen of roughly 250,000 compounds was conducted. […] The reporter system consists of one plasmid with a lac operator (lacO) encoded directly upstream of the lux operon which expresses proteins that produce luciferase, leading to easily detectable luminescence. […] The LacI protein which binds to lacO is a barrier to transcription; RNAP is unable to readily pass the bound protein and therefore, the transcription machinery stalls. […]

Experiment [2] deals with T1, Mfd. The experiment is described as follows: Binding affinity analysis by microscale thermophoresis. More on the design: species or system S. typhimurium. Conditions: labeled Mfd 50 nM. The protocol: FIGS. 2A-2D depict how ARM-1 affects Mfd's biochemical activity. FIG. 2A depicts how the kd of ARM-1 was determined using microscale thermophoresis. Data shown represent a minimum of three independent experiments. FIG. 2B depicts a NADH-coupled ATPase assay. ATP hydrolysis by Mfd was coupled to NADH oxidation. Phosphoenolpyruvate is converted to pyruvate by pyruvate kinase, transferring a phosphate group onto ADP, which is only present in the reaction following ATP hydrolysis by Mfd. Pyruvate is then converted to lactate by lactate dehydrogenase, oxidizing NADH to NAD^+. Absorbance at 340 nm by NADH is used to monitor the reaction. Data shown represent a minimum of 3 biological replicates. FIG. 2C depicts a transcription roadblock assay. A P32-labled 176 bp PCR fragment was incubated with E. coli RNAP along with saturating concentrations of ATP, GTP, and UTP. 100 nM S. typhimurium ST19 Mfd preincubated with indicated concentrations of ARM-1 was added and the reaction allowed to proceed for 6 minutes. DNA products were then resolved on a polyacrylamide gel and analyzed by phosphorimaging. […] Quantification of these gels is shown below each lane. […]
Microscale thermophoresis was performed on a Monolith (NanoTemper). […] MST experiments were performed under default settings apart from fluorescence intensity set to 100%. […]
In general terms: Microscale thermophoresis detects binding through changes in fluorescence in a small temperature gradient.

By Kd is commonly meant the concentration at which binding is half-saturated. A higher Kd goes with a looser complex.

T1 sequence (Q8ZQ01 entry or part of it): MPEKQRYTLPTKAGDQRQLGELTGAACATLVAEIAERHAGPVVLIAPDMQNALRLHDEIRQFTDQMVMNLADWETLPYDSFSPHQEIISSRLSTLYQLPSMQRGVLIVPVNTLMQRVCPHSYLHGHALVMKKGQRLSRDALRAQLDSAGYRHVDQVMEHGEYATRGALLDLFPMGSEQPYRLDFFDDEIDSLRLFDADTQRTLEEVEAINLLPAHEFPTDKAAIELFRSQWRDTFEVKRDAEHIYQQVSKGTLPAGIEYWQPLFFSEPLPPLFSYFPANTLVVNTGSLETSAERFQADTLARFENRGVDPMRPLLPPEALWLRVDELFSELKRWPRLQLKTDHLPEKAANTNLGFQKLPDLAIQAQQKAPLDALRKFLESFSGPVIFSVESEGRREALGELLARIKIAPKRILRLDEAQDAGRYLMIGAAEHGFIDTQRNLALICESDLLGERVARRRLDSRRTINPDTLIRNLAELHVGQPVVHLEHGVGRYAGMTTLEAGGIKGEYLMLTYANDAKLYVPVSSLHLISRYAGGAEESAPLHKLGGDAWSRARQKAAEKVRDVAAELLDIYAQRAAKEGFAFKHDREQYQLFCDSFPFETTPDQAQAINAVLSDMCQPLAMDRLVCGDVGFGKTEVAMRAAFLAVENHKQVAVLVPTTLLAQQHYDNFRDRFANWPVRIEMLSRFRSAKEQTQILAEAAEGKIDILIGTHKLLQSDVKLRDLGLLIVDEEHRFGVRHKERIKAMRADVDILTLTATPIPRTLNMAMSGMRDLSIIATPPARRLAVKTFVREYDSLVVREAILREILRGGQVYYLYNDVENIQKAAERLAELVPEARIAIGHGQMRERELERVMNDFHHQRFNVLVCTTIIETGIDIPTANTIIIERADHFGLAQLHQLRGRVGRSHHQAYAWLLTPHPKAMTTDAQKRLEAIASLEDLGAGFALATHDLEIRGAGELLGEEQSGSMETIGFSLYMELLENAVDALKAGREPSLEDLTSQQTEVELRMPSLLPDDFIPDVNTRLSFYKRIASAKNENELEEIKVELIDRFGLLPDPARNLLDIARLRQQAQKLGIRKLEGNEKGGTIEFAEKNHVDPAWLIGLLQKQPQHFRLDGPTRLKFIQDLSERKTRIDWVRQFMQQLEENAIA

On to `Cc1cc(Br)ccc1-c1ccc(CNCCCN(C)C)o1` [ARM-1, N^1-((5-(4-bromo-2-methylphenyl)furan-2-yl)methyl)-N^3,N^3-dimethylpropane-1,3-diamine], for which, at Mfd [1], the “effect on luminescence in cells lacking Mfd” value is “no effect”. Further, the Kd at Mfd [2] turned out to be 4.25 µM.

For the origin of these results see patent publication US20260015333A1, “COMPOUNDS AND METHODS FOR INHIBITION OF THE EVOLUTION OF […]” (priority 2022, published 2026).
